# Experimental data as given in patent US20180099931A1 (AbbVie S.à.r.l., priority 2016, published 2018).
# Where two headings read alike, the source gives them in different places.
# Molecular target: T1, F508delCFTR (Homo sapiens, UniProt P13569, DEL508-508)
# T1 construct: expressed in transfected cells; host or cells: CFBE41o- human lung-derived epithelial cells (CFBE4lo-F508delCFTR-HRP), doxycycline-inducible
# Assay: Cell Surface Expression-Horse Radish Peroxidase (CSE-HRP) Assay;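 on Maximum % activity (with co-corrector): co-corrector and positive control are both the same reference corrector at 2 µM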;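 on Maximum % activity (without co-corrector): percent of the 2 µM on-plate positive control corrector response above DMSO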
# Format: cell-based
# Conditions: for Emax / Maximum % activity (with co-corrector): maximum at any tested concentration, normalized to on-plate positive control; for Emax: read-out: Maximum % activity (without co-corrector)
# [1] = test compound without co-corrector
# [2] = test compound without co-corrector, read-out: EC50 (without co-corrector)
# [3] = with co-corrector (2 μM of 3-[(2R,4R)-4-({[1-(2,2-difluoro-1,3-benzodioxol-5-yl)cyclopropyl]carbonyl}amino)-7-methoxy-3,4-dihydro-2H-chromen-2-yl]benzoic acid)
# [4] = with co-corrector (2 μM of 3-[(2R,4R)-4-({[1-(2,2-difluoro-1,3-benzodioxol-5-yl)cyclopropyl]carbonyl}amino)-7-methoxy-3,4-dihydro-2H-chromen-2-yl]benzoic acid), read-out: EC50 (with co-corrector)
# T1 sequence (P13569 with tags, fused parts or gaps DEL508-508): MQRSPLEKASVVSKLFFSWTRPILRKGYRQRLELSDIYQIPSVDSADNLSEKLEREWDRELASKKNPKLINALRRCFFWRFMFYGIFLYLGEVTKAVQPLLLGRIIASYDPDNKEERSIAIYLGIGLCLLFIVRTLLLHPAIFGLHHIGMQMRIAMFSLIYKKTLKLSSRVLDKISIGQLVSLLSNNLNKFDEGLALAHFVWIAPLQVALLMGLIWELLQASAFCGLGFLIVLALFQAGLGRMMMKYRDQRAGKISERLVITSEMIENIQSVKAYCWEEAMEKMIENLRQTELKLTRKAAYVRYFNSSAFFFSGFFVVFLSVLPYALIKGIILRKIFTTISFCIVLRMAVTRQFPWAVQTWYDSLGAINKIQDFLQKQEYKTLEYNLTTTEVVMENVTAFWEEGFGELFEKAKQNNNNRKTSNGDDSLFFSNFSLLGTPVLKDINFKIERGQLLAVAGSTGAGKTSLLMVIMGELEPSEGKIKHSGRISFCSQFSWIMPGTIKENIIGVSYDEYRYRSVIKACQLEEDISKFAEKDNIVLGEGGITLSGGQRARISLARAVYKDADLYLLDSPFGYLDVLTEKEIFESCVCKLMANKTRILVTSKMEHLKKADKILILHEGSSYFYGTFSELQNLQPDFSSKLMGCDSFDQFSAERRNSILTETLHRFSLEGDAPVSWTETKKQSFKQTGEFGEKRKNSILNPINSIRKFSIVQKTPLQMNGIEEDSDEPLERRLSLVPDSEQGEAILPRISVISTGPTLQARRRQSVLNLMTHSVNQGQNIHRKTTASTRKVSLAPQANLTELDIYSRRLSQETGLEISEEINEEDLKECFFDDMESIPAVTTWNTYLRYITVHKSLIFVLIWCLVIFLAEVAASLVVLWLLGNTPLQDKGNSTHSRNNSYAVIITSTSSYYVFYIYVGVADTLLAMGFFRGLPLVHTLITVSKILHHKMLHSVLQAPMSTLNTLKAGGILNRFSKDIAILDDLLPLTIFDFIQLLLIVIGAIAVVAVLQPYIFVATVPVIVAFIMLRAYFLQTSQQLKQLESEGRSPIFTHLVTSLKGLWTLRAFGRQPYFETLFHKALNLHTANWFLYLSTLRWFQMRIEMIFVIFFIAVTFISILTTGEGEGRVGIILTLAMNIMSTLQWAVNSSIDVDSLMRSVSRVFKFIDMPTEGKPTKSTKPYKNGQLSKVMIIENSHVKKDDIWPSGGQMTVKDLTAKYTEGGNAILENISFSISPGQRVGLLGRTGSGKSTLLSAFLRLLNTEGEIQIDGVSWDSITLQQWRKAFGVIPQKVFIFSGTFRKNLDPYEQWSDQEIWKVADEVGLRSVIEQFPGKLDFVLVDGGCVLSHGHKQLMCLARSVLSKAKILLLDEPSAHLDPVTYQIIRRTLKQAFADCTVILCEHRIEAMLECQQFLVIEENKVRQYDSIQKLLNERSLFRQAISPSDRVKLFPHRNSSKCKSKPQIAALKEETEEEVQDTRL
Compound,Emax [1],EC50 [2],Maximum % activity (with co-corrector) [3],EC50 [4]
COc1ccc(C23CC(C2)C3)cc1CN[C@H]1[C@H](C(C)(C)C)[C@@H](C(=O)O)N(C(=O)[C@H]2CCC[C@H](OC)C2)[C@H]1c1ccccc1 [II-516],> 200%,1 to 10 µM,+++ (≥350),< 1 µM
COc1ccc(C23CC(C2)C3)cc1CN[C@H]1[C@H](C(C)(C)C)[C@@H](C(=O)O)N(C(=O)C2CCCCC2)[C@H]1c1ccccc1F [II-517],> 200%,1 to 10 µM,+++ (≥350),< 1 µM
COc1ncc(C2CCC2)cc1CN[C@H]1[C@H](C(C)(C)C)[C@@H](C(=O)O)N(C(=O)C2C3CCCC32)[C@H]1c1cccnc1N(C)C (some centres unmarked) [II-518],100 to 200%,1 to 10 µM,+++ (≥350),1 to 10 µM
COc1nc(C(C)(C)C)ccc1CN[C@H]1[C@H](C(C)(C)C)[C@@H](C(=O)O)N(C(=O)OC(C)C)[C@H]1c1ccccc1F [II-519],100 to 200%,1 to 10 µM,+++ (≥350),< 1 µM
COc1ccc(C23CC(C2)C3)cc1CN[C@H]1[C@H](C(C)(C)C)[C@@H](C(=O)O)N(C(=O)C2CCCCC2)[C@H]1c1cccnc1N(C)C [II-520],> 200%,1 to 10 µM,+++ (≥350),< 1 µM
COc1nc(C(C)(C)C)ccc1CN[C@H]1[C@H](C(C)(C)C)[C@@H](C(=O)O)N(C(=O)[C@H]2CCCCO2)[C@H]1c1cccnc1N(C)C [II-521],< 100%,1 to 10 µM,++ (≥150 and <350),1 to 10 µM
COc1ccc(OC(F)(F)F)cc1CN[C@H]1[C@H](C(C)(C)C)[C@@H](C(=O)O)N(C(=O)OC(C)C)[C@H]1c1ccccc1 [II-523],> 200%,1 to 10 µM,+++ (≥350),1 to 10 µM
COc1ccc(OC(F)(F)F)cc1CN[C@H]1[C@H](C(C)(C)C)[C@@H](C(=O)O)N(C(=O)C2CCCCC2)[C@H]1c1cccnc1OC [II-524],100 to 200%,1 to 10 µM,+++ (≥350),1 to 10 µM
COc1nc(C(C)(C)C)ccc1CN[C@H]1[C@H](C(C)(C)C)[C@@H](C(=O)O)N(C(=O)C2CCCCC2)[C@H]1c1ccccc1F [II-525],100 to 200%,1 to 10 µM,+++ (≥350),1 to 10 µM
COc1ccc(C(C)(C)C)cc1CN[C@H]1[C@H](C(C)(C)C)[C@@H](C(=O)O)N(C(=O)[C@@H]2CCC[C@](C)(O)C2)[C@H]1c1ccccc1 [II-526],100 to 200%,1 to 10 µM,+++ (≥350),1 to 10 µM
COc1ccc(SC(F)(F)F)cc1CN[C@H]1[C@H](C(C)(C)C)[C@@H](C(=O)O)N(C(=O)C2CCCCC2)[C@H]1c1cccnc1OC [II-527],100 to 200%,1 to 10 µM,+++ (≥350),1 to 10 µM
COc1nc(C(C)(C)C)ccc1CN[C@H]1[C@H](C(C)(C)C)[C@@H](C(=O)O)N(C(=O)C2CCCCC2)[C@H]1c1ccccc1OC(F)F [II-528],100 to 200%,1 to 10 µM,+++ (≥350),1 to 10 µM
COc1ncc(C2CCC2)cc1CN[C@H]1[C@H](C(C)(C)C)[C@@H](C(=O)O)N(C(=O)[C@@H]2CCCCO2)[C@H]1c1ccccc1F [II-531],100 to 200%,1 to 10 µM,+++ (≥350),1 to 10 µM
COc1ncc(C2CCC2)cc1CN[C@H]1[C@H](C(C)(C)C)[C@@H](C(=O)O)N(C(=O)[C@@H]2CCC[C@@H](F)C2)[C@H]1c1ccccc1 [II-532],> 200%,1 to 10 µM,+++ (≥350),< 1 µM
COc1ccc(C(C)(C)C)cc1CN[C@H]1[C@H](C(C)(C)C)[C@@H](C(=O)O)N(C(=O)[C@@H]2CCC[C@@](C)(O)C2)[C@H]1c1ccccc1 [II-533],> 200%,1 to 10 µM,+++ (≥350),1 to 10 µM
COc1ccc(S(F)(F)(F)(F)F)cc1CN[C@H]1[C@H](C(C)(C)C)[C@@H](C(=O)O)N(C(=O)OC(C)C)[C@H]1c1ccccc1 [II-535],> 200%,1 to 10 µM,+++ (≥350),1 to 10 µM
COc1ccc(C2(C)CCC2)cc1CN[C@H]1[C@H](C(C)(C)C)[C@@H](C(=O)O)N(C(=O)OC(C)C)[C@H]1c1ccccc1 [II-537],> 200%,1 to 10 µM,+++ (≥350),1 to 10 µM
COc1cc(C(F)(F)F)ccc1CN[C@H]1[C@H](C(C)(C)C)[C@@H](C(=O)O)N(C(=O)[C@@H]2CCC[C@H](O)C2)[C@H]1c1ccccc1 [II-538],100 to 200%,1 to 10 µM,+++ (≥350),1 to 10 µM

Compound,Emax [1],EC50 [2],Maximum % activity (with co-corrector) [3],EC50 [4]
COc1ccc(C(C)(C)C)cc1CN[C@H]1[C@H](C(C)(C)C)[C@@H](C(=O)O)N(C(=O)[C@@H](C)c2ccccc2)[C@H]1c1cccnc1OC [II-539],< 100%,1 to 10 µM,++ (≥150 and <350),1 to 10 µM
COc1ccc(C(C)(C)C)cc1CN[C@H]1[C@H](C(C)(C)C)[C@@H](C(=O)O)N(C(=O)[C@@H]2CCC[C@@H](OC(F)(F)F)C2)[C@H]1c1cccnc1OC [II-540],> 200%,1 to 10 µM,+++ (≥350),< 1 µM
COc1ccc(C(F)(F)F)cc1CN[C@H]1[C@H](C(C)(C)C)[C@@H](C(=O)O)N(C(=O)[C@H](C)c2ccccc2)[C@H]1c1cccnc1OC [II-541],100 to 200%,1 to 10 µM,+++ (≥350),1 to 10 µM
COc1ccc(OC(F)(F)F)cc1CN[C@H]1[C@H](C(C)(C)C)[C@@H](C(=O)O)N(C(=O)[C@H](C)c2ccccc2)[C@H]1c1cccnc1OC [II-542],100 to 200%,1 to 10 µM,+++ (≥350),1 to 10 µM
COc1ccc(C(C)(C)C)cc1CN[C@H]1[C@H](C(C)(C)C)[C@@H](C(=O)O)N(C(=O)[C@H]2C[C@@H]3CC[C@H]2O3)[C@H]1c1ccccc1 [II-543],> 200%,1 to 10 µM,+++ (≥350),1 to 10 µM
COc1ncc(C(F)(F)F)cc1CN[C@H]1[C@H](C23CC(C2)C3)[C@@H](C(=O)O)N(C(=O)OC(C)C)[C@H]1c1ccccc1F [II-544],100 to 200%,1 to 10 µM,+++ (≥350),1 to 10 µM
COc1ncc(C(F)(F)F)cc1CN[C@H]1[C@H](C(C)(C)C)[C@@H](C(=O)O)N(C(=O)C2CCCCC2)[C@H]1c1ccccc1C(C)C [II-545],> 200%,1 to 10 µM,+++ (≥350),1 to 10 µM
COc1ccc(C2(C)CCC2)cc1CN[C@H]1[C@H](C(C)(C)C)[C@@H](C(=O)O)N(C(=O)[C@@H]2CCCCO2)[C@H]1c1ccccc1F [II-546],> 200%,1 to 10 µM,+++ (≥350),1 to 10 µM
COc1ccc(-c2ccccc2)cc1CN[C@H]1[C@H](C(C)(C)C)[C@@H](C(=O)O)N(C(=O)OC(C)C)[C@H]1c1cccnc1N(C)C [II-547],> 200%,1 to 10 µM,+++ (≥350),1 to 10 µM
COc1nc(C2CCC2)ccc1CN[C@H]1[C@H](C(C)(C)C)[C@@H](C(=O)O)N(C(=O)OC(C)C)[C@H]1c1cccnc1N(C)C [II-548],100 to 200%,1 to 10 µM,+++ (≥350),1 to 10 µM
COc1cc2ccccc2cc1CN[C@H]1[C@H](C(C)(C)C)[C@@H](C(=O)O)N(C(=O)OC(C)C)[C@H]1c1ccccc1 [II-550],> 200%,1 to 10 µM,+++ (≥350),1 to 10 µM
COc1ccc(C(F)(F)F)cc1CN[C@H]1[C@H](C(C)(C)C)[C@@H](C(=O)O)N(C(=O)OC(C)C)[C@H]1c1cccnc1N(C)C [II-551],> 200%,1 to 10 µM,+++ (≥350),1 to 10 µM
COc1ccc(OC(F)(F)F)cc1CN[C@H]1[C@H](C(C)(C)C)[C@@H](C(=O)O)N(C(=O)OC(C)C)[C@H]1c1cccnc1N(C)C [II-552],> 200%,1 to 10 µM,+++ (≥350),1 to 10 µM
COc1ccc(C(F)(F)F)cc1CN[C@H]1[C@H](C(C)(C)C)[C@@H](C(=O)O)N(C(=O)OC(C)C)[C@H]1c1ccccc1 [II-553],> 200%,1 to 10 µM,+++ (≥350),1 to 10 µM
COc1cc2ccccc2cc1CN[C@@H]1[C@H](C(C)(C)C)[C@@H](C(=O)O)N(C(=O)OC(C)C)[C@H]1c1ccccc1 [II-554],100 to 200%,1 to 10 µM,+++ (≥350),1 to 10 µM
COc1cc2c(cc1CN[C@@H]1[C@H](C(C)(C)C)[C@@H](C(=O)O)N(C(=O)OC(C)C)[C@H]1c1ccccc1)CCC2 [II-555],< 100%,1 to 10 µM,++ (≥150 and <350),1 to 10 µM
COc1ccc(C(F)(F)F)cc1CN[C@@H]1[C@H](C(C)(C)C)[C@@H](C(=O)O)N(C(=O)OC(C)C)[C@H]1c1ccccc1 [II-556],< 100%,1 to 10 µM,++ (≥150 and <350),1 to 10 µM
